Read-outs that look alike come from different tables or passages of the source.
Key:
Test in all cases: biochemical
Type in all cases: binding
[1] = target: cellular kinases of SH-SY5Y cells (Homo sapiens, UniProt P41240); conditions: 2µM, SH-SY5Y cells, read-out: KiNativ in-cell binding, % Inhibition, CSK
Text: (§1) As KINOMEscan is an in vitro assay, and as different cell types have variable kinase expression profiles we sought to determine the kinase binding profile in our SH-SY5Y TFEB-relocalization cell model. […] Bound kinases were pulled down and analyzed by mass spectrometry to determine the in situ kinase binding profile for each compound.

[2] = target: cellular kinases of SH-SY5Y cells (Homo sapiens, UniProt Q2M2I8); conditions: 2µM; SH-SY5Y cells; labeling site Lys2; peptide DLKVENILLHDR
Text: as §1

[3] = target: cellular kinases of SH-SY5Y cells (Homo sapiens, UniProt P78368); conditions: 2µM; SH-SY5Y cells; Labeling Site Lys2; DVKPENFLVGRPGTK; read-out: KiNativ in-cell binding, % Inhibition, CSNK1G2/CK1g2
Text: as §1

[4] = target: T1, cellular kinases of SH-SY5Y cells (Homo sapiens, UniProt Q96BR1); conditions: 2µM; SH-SY5Y cells; Labeling Site Lys1; FYAVKVLQK; read-out: KiNativ in-cell binding, % Inhibition, SGK3
T1 construct: endogenous in cells; host or cells: SH-SY5Y
Text: as §1

[5] = target: T2, cellular kinases of SH-SY5Y cells (Homo sapiens, UniProt Q16513); conditions: 2µM; SH-SY5Y cells; labeling site Lys2; peptide DLKLDNLLLDTEGFVK
T2 construct: endogenous in cells; host or cells: SH-SY5Y
Text: as §1

[6] = target: cellular kinases of SH-SY5Y cells (Homo sapiens, UniProt Q96Q15); conditions: 2µM, SH-SY5Y cells, Labeling Site ATP, read-out: KiNativ in-cell binding, % Inhibition, SMG1
Text: as §1

[7] = target: T3, cellular kinases of SH-SY5Y cells (Homo sapiens, UniProt Q8IVH8); conditions: 2µM, SH-SY5Y cells, read-out: KiNativ in-cell binding, % Inhibition, MAP4K3
T3 construct: endogenous in cells; host or cells: SH-SY5Y
T3 sequence (Q8IVH8 whole entry): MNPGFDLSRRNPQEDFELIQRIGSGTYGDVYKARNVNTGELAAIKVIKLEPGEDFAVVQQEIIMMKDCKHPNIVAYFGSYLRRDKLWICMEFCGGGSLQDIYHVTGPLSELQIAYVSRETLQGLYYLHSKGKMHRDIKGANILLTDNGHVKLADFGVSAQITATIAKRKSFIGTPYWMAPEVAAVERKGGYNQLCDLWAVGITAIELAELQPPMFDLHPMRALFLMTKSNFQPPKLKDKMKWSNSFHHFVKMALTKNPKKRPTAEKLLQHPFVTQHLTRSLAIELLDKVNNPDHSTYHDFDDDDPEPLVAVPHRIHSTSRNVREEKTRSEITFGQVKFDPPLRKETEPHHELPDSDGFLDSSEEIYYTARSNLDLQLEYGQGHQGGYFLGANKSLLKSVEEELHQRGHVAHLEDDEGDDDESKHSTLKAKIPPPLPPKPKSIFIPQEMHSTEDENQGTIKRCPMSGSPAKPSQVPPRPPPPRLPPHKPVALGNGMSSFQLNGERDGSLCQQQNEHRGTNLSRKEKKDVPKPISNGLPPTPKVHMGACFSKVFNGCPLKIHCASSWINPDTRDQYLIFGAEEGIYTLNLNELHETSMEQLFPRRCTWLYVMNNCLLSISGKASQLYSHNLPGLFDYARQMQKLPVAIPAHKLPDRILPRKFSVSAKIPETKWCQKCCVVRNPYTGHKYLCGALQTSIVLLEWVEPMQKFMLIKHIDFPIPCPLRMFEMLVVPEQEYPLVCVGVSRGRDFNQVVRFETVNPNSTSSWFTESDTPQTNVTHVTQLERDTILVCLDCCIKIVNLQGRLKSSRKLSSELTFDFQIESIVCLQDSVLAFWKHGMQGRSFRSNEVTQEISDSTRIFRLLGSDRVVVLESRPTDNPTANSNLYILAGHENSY
Text: as §1

[8] = target: T4, cellular kinases of SH-SY5Y cells (Homo sapiens, UniProt O96017); conditions: 2µM, SH-SY5Y cells, read-out: KiNativ in-cell binding, % Inhibition, CHEK2/CHK2
T4 construct: endogenous in cells; host or cells: SH-SY5Y
T4 sequence (O96017 whole entry): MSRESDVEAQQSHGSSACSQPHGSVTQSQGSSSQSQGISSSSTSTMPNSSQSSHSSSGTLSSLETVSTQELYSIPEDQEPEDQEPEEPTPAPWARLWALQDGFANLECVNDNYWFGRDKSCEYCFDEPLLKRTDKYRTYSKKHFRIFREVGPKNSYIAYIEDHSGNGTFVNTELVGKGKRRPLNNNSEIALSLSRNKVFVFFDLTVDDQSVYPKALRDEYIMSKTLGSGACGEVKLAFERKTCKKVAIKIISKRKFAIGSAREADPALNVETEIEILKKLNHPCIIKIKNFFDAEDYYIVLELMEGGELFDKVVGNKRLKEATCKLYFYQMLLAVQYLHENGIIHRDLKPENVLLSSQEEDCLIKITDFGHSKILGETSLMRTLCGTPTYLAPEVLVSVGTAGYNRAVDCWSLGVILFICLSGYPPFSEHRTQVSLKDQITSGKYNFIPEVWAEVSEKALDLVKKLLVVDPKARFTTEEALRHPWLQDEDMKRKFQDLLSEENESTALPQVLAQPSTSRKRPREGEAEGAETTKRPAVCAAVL
Text: as §1

[9] = target: T5, cellular kinases of SH-SY5Y cells (Homo sapiens, UniProt O75385); conditions: 2µM; SH-SY5Y cells; Labeling Site Lys2; DLKPQNILLSNPAGR; read-out: KiNativ in-cell binding, % Inhibition, ULK1
T5 construct: endogenous in cells; host or cells: SH-SY5Y
T5 sequence (O75385 whole entry): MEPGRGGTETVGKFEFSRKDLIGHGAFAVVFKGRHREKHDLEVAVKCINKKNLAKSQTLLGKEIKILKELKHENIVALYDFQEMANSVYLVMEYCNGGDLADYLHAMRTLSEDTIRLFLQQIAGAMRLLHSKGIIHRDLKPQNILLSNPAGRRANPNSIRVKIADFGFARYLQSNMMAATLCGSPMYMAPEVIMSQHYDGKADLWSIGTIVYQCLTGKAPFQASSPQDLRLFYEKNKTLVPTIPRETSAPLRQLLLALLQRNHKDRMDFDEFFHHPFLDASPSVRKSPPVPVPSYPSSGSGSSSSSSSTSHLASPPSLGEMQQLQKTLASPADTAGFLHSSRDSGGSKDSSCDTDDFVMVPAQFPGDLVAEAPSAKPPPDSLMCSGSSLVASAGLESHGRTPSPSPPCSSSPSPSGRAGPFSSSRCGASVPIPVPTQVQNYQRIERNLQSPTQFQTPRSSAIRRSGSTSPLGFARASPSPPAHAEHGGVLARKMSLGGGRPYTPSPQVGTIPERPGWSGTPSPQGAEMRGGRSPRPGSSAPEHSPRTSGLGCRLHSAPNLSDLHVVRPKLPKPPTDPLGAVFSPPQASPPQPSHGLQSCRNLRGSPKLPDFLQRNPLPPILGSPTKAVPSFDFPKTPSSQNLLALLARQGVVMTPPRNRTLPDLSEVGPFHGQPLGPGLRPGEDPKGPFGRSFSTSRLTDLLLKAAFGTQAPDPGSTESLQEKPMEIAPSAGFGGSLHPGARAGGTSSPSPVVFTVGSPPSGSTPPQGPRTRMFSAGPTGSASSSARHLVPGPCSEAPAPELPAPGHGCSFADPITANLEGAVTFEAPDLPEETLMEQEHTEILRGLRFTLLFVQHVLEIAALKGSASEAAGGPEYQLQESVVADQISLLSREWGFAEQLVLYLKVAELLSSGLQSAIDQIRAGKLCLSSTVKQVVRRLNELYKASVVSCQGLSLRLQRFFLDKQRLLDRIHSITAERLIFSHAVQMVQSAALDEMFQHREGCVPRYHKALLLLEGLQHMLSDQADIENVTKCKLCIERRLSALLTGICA
Text: as §1

[10] = target: T6, cellular kinases of SH-SY5Y cells (Homo sapiens, UniProt O15111); conditions: 2µM; SH-SY5Y cells; Labeling Site Lys2; DLKPENIVLQDVGGK; read-out: KiNativ in-cell binding, % Inhibition, CHUK/IKKa
T6 construct: endogenous in cells; host or cells: SH-SY5Y
Text: as §1

[11] = target: cellular kinases of SH-SY5Y cells (Homo sapiens, UniProt Q13163); conditions: 2µM; SH-SY5Y cells; Labeling Site Lys2; DVKPSNMLVNTR; read-out: KiNativ in-cell binding, % Inhibition, MAP2K5
Text: as §1

[12] = target: T7, cellular kinases of SH-SY5Y cells (Homo sapiens, UniProt Q86UX6); conditions: 2µM; SH-SY5Y cells; Labeling Site Lys2; DVKPDNILLDER; read-out: KiNativ in-cell binding, % Inhibition, STK32C/YANK3
T7 construct: endogenous in cells; host or cells: SH-SY5Y
Text: as §1

[13] = target: T8, cellular kinases of SH-SY5Y cells (Homo sapiens, UniProt Q8IZL9); conditions: 2µM; SH-SY5Y cells; Labeling Site Lys2; DLKPANLLISASGQLK; read-out: KiNativ in-cell binding, % Inhibition, CDK20
T8 construct: endogenous in cells; host or cells: SH-SY5Y
T8 sequence (Q8IZL9 whole entry): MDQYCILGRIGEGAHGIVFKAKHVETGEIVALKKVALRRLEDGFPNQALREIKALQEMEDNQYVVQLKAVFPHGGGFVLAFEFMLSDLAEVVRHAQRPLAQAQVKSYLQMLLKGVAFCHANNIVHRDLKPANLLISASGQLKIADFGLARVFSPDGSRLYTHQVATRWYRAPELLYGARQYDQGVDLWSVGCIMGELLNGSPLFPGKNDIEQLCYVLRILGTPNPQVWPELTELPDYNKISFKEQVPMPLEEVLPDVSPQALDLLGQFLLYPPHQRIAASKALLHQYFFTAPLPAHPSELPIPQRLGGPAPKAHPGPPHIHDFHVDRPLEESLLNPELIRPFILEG
Text: as §1

[14] = target: cellular kinases of SH-SY5Y cells (Homo sapiens, UniProt P09769); conditions: 2µM; SH-SY5Y cells; Labeling Site Activation Loop; LIKDDEYNPCQGSKFPIK; read-out: KiNativ in-cell binding, % Inhibition, FGR
Text: as §1

[15] = target: T9, cellular kinases of SH-SY5Y cells (Homo sapiens, UniProt Q13233); conditions: 2µM; SH-SY5Y cells; Labeling Site Lys2; DVKGANLLIDSTGQR; read-out: KiNativ in-cell binding, % Inhibition, MAP3K1
T9 construct: endogenous in cells; host or cells: SH-SY5Y
Text: as §1

[16] = target: T10, cellular kinases of SH-SY5Y cells (Homo sapiens, UniProt Q16644); conditions: 2µM; SH-SY5Y cells; Labeling Site ATP Loop; QVLGLGVNGKVLECFHR; read-out: KiNativ in-cell binding, % Inhibition, MAPKAPK3
T10 construct: endogenous in cells; host or cells: SH-SY5Y
Text: as §1

[17] = target: T11, cellular kinases of SH-SY5Y cells (Homo sapiens, UniProt Q8NB16); conditions: 2µM; SH-SY5Y cells; labeling site Lys1; peptide APVAIKVFK
T11 construct: endogenous in cells; host or cells: SH-SY5Y
Text: as §1

[18] = target: cellular kinases of SH-SY5Y cells (Homo sapiens, UniProt P06493); conditions: 2µM; SH-SY5Y cells; Labeling Site Lys2; DLKPQNLLIDDK; read-out: KiNativ in-cell binding, % Inhibition, CDK1/CDC2
Chain of cellular kinases of SH-SY5Y cells (Homo sapiens, UniProt P06493) (P06493 whole entry): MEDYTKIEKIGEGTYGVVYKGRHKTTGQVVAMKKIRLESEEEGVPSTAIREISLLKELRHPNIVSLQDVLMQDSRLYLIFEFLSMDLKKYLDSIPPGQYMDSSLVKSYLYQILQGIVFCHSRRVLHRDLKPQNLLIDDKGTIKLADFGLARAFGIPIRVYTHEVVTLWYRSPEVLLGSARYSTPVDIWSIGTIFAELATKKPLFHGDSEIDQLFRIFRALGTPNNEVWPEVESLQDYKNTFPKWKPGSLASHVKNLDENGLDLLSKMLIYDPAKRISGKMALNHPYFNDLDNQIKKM
Text: as §1

[19] = target: cellular kinases of SH-SY5Y cells (Homo sapiens, UniProt Q96RR4); conditions: 2µM, SH-SY5Y cells
Chain of cellular kinases of SH-SY5Y cells (Homo sapiens, UniProt Q96RR4) (Q96RR4 whole entry): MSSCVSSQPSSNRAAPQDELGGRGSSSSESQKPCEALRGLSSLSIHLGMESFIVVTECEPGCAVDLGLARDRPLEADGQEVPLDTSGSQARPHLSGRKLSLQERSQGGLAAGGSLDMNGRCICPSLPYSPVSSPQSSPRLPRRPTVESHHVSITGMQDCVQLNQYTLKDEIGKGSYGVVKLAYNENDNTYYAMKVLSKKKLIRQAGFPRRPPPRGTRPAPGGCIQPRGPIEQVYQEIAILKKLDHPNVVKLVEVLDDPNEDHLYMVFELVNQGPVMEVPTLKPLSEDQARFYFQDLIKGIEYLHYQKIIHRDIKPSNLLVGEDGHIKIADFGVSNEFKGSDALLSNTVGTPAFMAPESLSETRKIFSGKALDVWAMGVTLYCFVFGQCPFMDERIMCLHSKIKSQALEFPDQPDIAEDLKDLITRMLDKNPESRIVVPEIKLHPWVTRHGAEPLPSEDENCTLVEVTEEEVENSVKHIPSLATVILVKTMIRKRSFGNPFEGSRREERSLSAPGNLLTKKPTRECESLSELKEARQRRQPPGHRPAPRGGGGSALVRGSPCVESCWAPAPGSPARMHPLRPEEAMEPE
Text: as §1

[20] = target: cellular kinases of SH-SY5Y cells (Homo sapiens, UniProt P15056); conditions: 2µM; SH-SY5Y cells; labeling site Lys2; peptide DLKSNNIFLHEDLTVK
Chain of cellular kinases of SH-SY5Y cells (Homo sapiens, UniProt P15056) (P15056 whole entry): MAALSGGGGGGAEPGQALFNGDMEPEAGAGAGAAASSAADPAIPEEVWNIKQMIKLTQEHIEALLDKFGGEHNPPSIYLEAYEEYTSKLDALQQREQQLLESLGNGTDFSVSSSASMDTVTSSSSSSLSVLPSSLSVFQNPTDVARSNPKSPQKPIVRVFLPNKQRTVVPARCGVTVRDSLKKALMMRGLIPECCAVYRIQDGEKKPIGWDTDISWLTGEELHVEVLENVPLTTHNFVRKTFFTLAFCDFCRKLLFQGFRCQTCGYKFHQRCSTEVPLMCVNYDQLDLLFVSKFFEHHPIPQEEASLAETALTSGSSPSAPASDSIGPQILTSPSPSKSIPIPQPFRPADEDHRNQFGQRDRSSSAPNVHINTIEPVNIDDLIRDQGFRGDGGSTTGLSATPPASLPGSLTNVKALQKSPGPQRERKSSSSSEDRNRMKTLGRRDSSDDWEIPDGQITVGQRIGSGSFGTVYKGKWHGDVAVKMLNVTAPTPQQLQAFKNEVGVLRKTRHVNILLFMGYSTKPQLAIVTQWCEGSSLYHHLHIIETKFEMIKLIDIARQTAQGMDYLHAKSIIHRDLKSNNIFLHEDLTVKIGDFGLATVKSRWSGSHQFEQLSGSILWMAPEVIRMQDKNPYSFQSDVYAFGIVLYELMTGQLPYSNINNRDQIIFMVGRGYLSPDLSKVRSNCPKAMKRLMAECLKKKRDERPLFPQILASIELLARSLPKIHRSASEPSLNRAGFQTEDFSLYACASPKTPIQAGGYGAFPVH
Text: as §1

Chain of cellular kinases of SH-SY5Y cells (Homo sapiens, UniProt P41240) (P41240 whole entry): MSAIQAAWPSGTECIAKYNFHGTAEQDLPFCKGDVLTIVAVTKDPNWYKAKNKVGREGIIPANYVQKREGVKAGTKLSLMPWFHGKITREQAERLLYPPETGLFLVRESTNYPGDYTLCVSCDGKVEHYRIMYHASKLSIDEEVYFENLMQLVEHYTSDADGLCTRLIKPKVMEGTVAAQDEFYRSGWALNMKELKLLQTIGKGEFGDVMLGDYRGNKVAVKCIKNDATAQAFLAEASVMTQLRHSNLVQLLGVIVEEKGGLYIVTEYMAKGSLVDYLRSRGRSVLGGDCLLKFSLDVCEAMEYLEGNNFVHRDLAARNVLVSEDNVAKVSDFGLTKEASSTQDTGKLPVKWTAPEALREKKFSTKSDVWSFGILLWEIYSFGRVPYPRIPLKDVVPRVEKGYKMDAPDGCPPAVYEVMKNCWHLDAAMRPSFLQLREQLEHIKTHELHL

## Cc1cccc(-c2nc(Nc3ccc4ncsc4c3)c3ccccc3n2)n1 [NK140]
[1]; Labeling Site Activation Loop, VSDFGLTKEASSTQDTGKLPVK
  inhibition at 2 µM: 21.6%
[1]; Labeling Site Lys1, VAVKCIK
  inhibition at 2 µM: 4.7%
[2]
  KiNativ in-cell binding, AAK1: -42.8
[3]
  inhibition at 2 µM: 1.8%
[4]
  inhibition at 2 µM: 1%
[5]
  KiNativ in-cell binding, PKN2: -28.2
[6]; DTVTIHSVGGTITILPTKTKPK
  inhibition at 2 µM: 11.2%
[6]; SYPYLFKGLEDLHLDER
  inhibition at 2 µM: 43.7%
[7]; Labeling Site Lys1, NVNTGELAAIKVIK
  inhibition at 2 µM: 29.8%
[7]; Labeling Site Lys2, DIKGANILLTDNGHVK
  inhibition at 2 µM: 20.5%
[8]; Labeling Site Lys1, VAIKIISK
  inhibition at 2 µM: 7.7%
[8]; Labeling Site Lys2, DLKPENVLLSSQEEDCLIK
  inhibition at 2 µM: 15.3%
[9]
  inhibition at 2 µM: -13.4%
[10]
  inhibition at 2 µM: -29.6%
[11]
  inhibition at 2 µM: -14.7%
[12]
  inhibition at 2 µM: -34.7%
[13]
  inhibition at 2 µM: 9.5%
[14]
  inhibition at 2 µM: 20.4%
[15]
  inhibition at 2 µM: -7.7%
[16]
  inhibition at 2 µM: 16.2%
[17]
  KiNativ in-cell binding, MLKL: -57.5
[18]
  inhibition at 2 µM: -2.3%
[19]; Labeling Site Lys1, LAYNENDNTYYAMKVLSK, read-out: KiNativ in-cell binding, % Inhibition, CaMKK2
  inhibition at 2 µM: -64%
[19]; labeling site Lys2, peptide DIKPSNLLVGEDGHIK
  KiNativ in-cell binding, CaMKK2: -31.8
[20]
  KiNativ in-cell binding, BRAF, BRAF V600E: -25.8
